# Values of other authors, collected in patent publication US20210330644A1, “COMBINATION THERAPY FOR TREATING METASTATIC PROSTATE CANCER” (Progenics Pharmaceuticals, Inc, priority 2018, published 2021).
# System: mCRPC
compound,measurement,setting,value
CNC(=O)c1ccc(N2C(=S)N(c3ccc(C#N)c(C(F)(F)F)c3)C(=O)C2(C)C)cc1F [enzalutamide],proportion of patients with >50% decline in PSA from baseline,after progression under abiraterone therapy of any duration,30-51%
same,benefit in abiraterone-resistant patients,majority of data,limited benefit
